{"source": "ChEMBL document CHEMBL4819072", "about": "“Radioligand and computational insight in structure - Activity relationship of saccharin derivatives being ipsapirone and revospirone analogues” (Bioorg Med Chem Lett, 2021)"}
{"target": "T1, 5-hydroxytryptamine receptor 1A (Homo sapiens, UniProt P08908)", "T1 sequence (P08908 whole entry)": "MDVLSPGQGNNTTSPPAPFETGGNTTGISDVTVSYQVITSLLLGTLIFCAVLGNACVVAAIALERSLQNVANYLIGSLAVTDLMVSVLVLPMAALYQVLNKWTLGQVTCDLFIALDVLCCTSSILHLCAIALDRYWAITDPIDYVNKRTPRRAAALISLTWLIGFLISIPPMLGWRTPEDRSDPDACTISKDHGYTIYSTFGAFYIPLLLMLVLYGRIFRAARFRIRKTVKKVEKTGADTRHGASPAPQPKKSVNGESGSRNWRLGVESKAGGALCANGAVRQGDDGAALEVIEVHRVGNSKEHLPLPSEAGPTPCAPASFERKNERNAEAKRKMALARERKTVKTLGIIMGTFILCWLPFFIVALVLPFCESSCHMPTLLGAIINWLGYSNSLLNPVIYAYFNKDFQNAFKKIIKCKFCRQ", "assay": "Displacement of [3H]-[…] from human 5-HT1AR expressed in human HEK293 cells", "format": "cell-based", "units": {"Ki": "nM"}}
{"smiles": "O=C1c2ccccc2S(=O)(=O)N1CCCN1CCN(c2cccc(C(F)(F)F)c2)CC1", "Ki": 400}
{"smiles": "O=C1c2ccccc2S(=O)(=O)N1CCCCN1CCN(c2ncccn2)CC1", "note": "[IPSAPIRONE]", "Ki": 7.9}
{"smiles": "COc1ccccc1N1CCN(CCCCCCN2C(=O)c3ccccc3S2(=O)=O)CC1", "Ki": 10}
{"smiles": "COc1ccccc1N1CCN(CCCCCN2C(=O)c3ccccc3S2(=O)=O)CC1", "Ki": 3}
{"smiles": "O=C1c2ccccc2S(=O)(=O)N1CCCCN1CCN(c2cccc(Cl)c2Cl)CC1", "Ki": 1}
{"smiles": "O=C1c2ccccc2S(=O)(=O)N1CCCCN1CCN(c2cccc(C(F)(F)F)c2)CC1", "Ki": 100}
{"target": "5-hydroxytryptamine receptor 7 (Homo sapiens, UniProt P34969)", "sequence (P34969 whole entry)": "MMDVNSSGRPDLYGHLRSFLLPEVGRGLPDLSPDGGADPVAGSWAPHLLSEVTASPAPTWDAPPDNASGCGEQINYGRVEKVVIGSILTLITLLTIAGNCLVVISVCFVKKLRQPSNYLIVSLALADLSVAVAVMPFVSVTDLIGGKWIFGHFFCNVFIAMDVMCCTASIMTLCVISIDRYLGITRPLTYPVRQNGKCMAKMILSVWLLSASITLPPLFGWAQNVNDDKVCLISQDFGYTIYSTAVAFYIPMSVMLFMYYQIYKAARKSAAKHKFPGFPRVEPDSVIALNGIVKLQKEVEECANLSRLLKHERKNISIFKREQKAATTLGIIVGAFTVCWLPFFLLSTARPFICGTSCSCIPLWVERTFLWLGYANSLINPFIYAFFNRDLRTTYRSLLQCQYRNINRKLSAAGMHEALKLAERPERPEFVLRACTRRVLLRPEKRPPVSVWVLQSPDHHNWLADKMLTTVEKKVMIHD", "assay": "Displacement of [3H]-5CT from human 5-HT7R expressed in human HEK293 cells", "format": "cell-based", "units": {"Ki": "nM"}}
{"smiles": "O=C1c2ccccc2S(=O)(=O)N1CCCCN1CCN(c2ncccn2)CC1", "note": "[IPSAPIRONE]", "Ki": 1410}
{"smiles": "COc1ccccc1N1CCN(CCCCCCN2C(=O)c3ccccc3S2(=O)=O)CC1", "Ki": 105}
{"smiles": "COc1ccccc1N1CCN(CCCCCN2C(=O)c3ccccc3S2(=O)=O)CC1", "Ki": 125}
{"smiles": "O=C1c2ccccc2S(=O)(=O)N1CCCCN1CCN(c2cccc(Cl)c2Cl)CC1", "Ki": 372}
{"target": "5-hydroxytryptamine receptor 6 (Homo sapiens, UniProt P50406)", "sequence (P50406 whole entry)": "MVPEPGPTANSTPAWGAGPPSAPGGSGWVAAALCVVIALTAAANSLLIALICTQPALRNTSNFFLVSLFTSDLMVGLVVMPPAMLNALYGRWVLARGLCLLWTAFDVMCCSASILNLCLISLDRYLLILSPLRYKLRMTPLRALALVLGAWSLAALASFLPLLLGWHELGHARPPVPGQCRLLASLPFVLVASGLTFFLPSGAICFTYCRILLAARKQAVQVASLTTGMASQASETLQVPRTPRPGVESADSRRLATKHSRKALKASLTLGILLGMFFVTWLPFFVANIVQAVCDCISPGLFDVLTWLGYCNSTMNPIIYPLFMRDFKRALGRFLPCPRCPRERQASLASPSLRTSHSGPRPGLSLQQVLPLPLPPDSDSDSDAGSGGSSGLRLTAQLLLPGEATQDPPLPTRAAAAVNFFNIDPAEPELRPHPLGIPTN", "assay": "Displacement of [3H]-LSD from human 5-HT6R expressed in human HEK293 cells", "format": "cell-based", "units": {"Ki": "nM"}}
{"smiles": "O=C1c2ccccc2S(=O)(=O)N1CCCCN1CCN(c2ncccn2)CC1", "note": "[IPSAPIRONE]", "Ki": 16800}
{"smiles": "COc1ccccc1N1CCN(CCCCCCN2C(=O)c3ccccc3S2(=O)=O)CC1", "Ki": 779}
{"smiles": "COc1ccccc1N1CCN(CCCCCN2C(=O)c3ccccc3S2(=O)=O)CC1", "Ki": 1990}
{"smiles": "O=C1c2ccccc2S(=O)(=O)N1CCCCN1CCN(c2cccc(Cl)c2Cl)CC1", "Ki": 2660}
{"target": "T2, Adrenergic receptor alpha-1 (Homo sapiens, UniProt P35348+P25100+P35368)", "T2 sequence (P35348 whole entry)": "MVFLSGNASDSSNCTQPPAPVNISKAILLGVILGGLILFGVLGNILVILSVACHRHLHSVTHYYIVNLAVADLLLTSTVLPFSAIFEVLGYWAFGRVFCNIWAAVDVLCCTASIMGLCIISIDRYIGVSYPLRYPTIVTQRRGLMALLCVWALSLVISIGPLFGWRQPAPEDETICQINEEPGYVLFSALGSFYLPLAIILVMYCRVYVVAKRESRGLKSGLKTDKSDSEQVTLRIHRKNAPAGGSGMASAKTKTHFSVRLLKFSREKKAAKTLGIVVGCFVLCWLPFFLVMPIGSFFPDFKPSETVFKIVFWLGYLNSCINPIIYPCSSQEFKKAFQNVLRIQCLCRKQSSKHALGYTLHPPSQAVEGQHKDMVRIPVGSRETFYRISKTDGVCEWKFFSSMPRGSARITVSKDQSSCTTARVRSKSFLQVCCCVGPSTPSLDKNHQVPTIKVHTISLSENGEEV", "T2 sequence (P25100 whole entry)": "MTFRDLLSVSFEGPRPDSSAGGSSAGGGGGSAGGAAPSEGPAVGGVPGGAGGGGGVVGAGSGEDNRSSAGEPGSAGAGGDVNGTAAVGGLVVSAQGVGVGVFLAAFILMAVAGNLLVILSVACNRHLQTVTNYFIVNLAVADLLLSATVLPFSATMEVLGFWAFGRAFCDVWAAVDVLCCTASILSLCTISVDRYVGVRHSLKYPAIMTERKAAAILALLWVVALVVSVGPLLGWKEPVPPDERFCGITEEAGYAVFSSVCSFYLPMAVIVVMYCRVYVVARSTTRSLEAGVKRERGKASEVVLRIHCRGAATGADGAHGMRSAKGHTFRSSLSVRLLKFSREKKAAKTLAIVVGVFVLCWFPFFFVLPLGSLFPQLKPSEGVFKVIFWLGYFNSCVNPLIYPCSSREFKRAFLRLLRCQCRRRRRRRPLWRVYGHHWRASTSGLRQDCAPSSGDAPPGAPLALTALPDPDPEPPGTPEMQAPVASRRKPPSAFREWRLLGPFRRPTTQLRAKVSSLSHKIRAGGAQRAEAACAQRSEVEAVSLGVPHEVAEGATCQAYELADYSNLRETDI", "T2 sequence (P35368 whole entry)": "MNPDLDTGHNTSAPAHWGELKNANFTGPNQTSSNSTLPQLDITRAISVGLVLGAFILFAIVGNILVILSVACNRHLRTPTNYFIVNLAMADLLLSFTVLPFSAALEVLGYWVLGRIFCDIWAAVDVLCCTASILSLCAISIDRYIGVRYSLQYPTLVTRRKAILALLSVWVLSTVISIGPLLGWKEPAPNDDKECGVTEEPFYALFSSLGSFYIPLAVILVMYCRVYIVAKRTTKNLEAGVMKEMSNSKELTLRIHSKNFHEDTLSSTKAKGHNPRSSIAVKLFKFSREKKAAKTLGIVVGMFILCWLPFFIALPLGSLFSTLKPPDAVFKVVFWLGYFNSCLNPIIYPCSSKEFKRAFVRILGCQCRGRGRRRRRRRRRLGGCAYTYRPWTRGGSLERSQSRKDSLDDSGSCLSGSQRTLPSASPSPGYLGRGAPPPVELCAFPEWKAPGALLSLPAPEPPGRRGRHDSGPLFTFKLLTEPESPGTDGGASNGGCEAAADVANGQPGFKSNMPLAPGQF", "assay": "Binding affinity to human adrenergic receptor alpha1", "format": "protein assay", "units": {"Ki": "nM"}}
{"smiles": "O=C1c2ccccc2S(=O)(=O)N1CCCCN1CCN(c2ncccn2)CC1", "note": "[IPSAPIRONE]", "Ki": 229}
{"smiles": "O=C1c2ccccc2S(=O)(=O)N1CCCCN1CCN(c2cccc(C(F)(F)F)c2)CC1", "Ki": 1500}
{"target": "D(2) dopamine receptor (Homo sapiens, UniProt P14416)", "sequence (P14416 whole entry)": "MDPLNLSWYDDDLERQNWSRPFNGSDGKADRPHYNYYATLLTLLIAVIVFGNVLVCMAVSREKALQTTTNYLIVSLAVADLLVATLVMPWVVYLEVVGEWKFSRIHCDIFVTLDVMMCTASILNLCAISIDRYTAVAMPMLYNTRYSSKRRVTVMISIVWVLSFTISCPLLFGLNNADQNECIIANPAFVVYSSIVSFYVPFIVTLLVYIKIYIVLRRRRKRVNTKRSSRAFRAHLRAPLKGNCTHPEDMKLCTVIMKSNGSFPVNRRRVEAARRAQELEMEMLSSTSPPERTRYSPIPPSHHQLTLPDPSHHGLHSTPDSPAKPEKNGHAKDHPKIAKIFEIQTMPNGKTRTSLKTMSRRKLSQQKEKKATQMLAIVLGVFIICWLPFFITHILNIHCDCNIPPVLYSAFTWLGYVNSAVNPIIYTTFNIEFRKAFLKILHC", "assay": "Displacement of [3H]-raclopride from human D2R expressed in human HEK293 cells", "format": "cell-based", "units": {"Ki": "nM"}}
{"smiles": "COc1ccccc1N1CCN(CCCCCCN2C(=O)c3ccccc3S2(=O)=O)CC1", "Ki": 1}
{"smiles": "COc1ccccc1N1CCN(CCCCCN2C(=O)c3ccccc3S2(=O)=O)CC1", "Ki": 20}
{"smiles": "O=C1c2ccccc2S(=O)(=O)N1CCCCN1CCN(c2cccc(Cl)c2Cl)CC1", "Ki": 26}
{"target": "T3, D(4) dopamine receptor (Homo sapiens, UniProt P21917)", "T3 sequence (P21917 whole entry)": "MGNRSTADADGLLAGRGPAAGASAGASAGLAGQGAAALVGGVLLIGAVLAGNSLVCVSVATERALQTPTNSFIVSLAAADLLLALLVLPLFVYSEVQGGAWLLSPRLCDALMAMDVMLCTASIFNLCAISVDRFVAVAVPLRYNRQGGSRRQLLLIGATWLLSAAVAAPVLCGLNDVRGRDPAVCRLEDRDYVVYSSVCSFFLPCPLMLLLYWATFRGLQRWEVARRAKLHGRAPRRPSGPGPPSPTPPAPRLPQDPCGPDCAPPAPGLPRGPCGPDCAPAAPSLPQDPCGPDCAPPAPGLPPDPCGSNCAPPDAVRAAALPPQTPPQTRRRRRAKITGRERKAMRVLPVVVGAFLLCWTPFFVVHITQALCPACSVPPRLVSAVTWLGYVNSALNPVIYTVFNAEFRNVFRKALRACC", "assay": "Binding affinity to human D4R", "units": {"Ki": "nM"}}
{"smiles": "COc1ccccc1N1CCN(CCCCN2C(=O)c3ccccc3S2(=O)=O)CC1", "Ki": 79}
{"smiles": "O=C1c2ccccc2S(=O)(=O)N1CCCCN1CCN(c2ccc(Cl)cc2)CC1", "Ki": 36}
{"smiles": "O=C1c2ccccc2S(=O)(=O)N1CCCCN1CCN(c2ccccc2)CC1", "Ki": 136}
{"smiles": "O=C1c2ccccc2S(=O)(=O)N1CCCCN1CCN(c2cccc(C(F)(F)F)c2)CC1", "Ki": "> 5000"}
{"target": "5-hydroxytryptamine receptor 2A (Homo sapiens, UniProt P28223)", "sequence (P28223 whole entry)": "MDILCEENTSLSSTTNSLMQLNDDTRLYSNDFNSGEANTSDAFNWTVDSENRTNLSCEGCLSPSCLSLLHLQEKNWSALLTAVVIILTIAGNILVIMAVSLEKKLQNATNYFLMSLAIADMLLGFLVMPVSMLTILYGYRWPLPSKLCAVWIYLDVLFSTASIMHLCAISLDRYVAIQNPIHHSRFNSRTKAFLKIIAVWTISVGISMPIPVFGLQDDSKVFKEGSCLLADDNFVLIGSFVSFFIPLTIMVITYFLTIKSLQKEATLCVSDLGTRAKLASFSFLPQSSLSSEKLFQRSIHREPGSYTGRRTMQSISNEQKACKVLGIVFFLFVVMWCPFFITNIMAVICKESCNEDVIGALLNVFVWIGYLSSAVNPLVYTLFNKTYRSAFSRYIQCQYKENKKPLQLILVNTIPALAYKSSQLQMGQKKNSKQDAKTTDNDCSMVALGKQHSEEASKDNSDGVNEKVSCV", "assay": "Displacement of [3H]-ketanserin from human 5-HT2AR expressed in CHO cells", "format": "cell-based", "units": {"Ki": "nM"}}
{"smiles": "O=C1c2ccccc2S(=O)(=O)N1CCCN1CCN(c2cccc(C(F)(F)F)c2)CC1", "Ki": 700}
{"smiles": "O=C1c2ccccc2S(=O)(=O)N1CCCCN1CCN(c2ncccn2)CC1", "note": "[IPSAPIRONE]", "Ki": 15000}
{"smiles": "COc1ccccc1N1CCN(CCCCCCN2C(=O)c3ccccc3S2(=O)=O)CC1", "Ki": 764}
{"smiles": "COc1ccccc1N1CCN(CCCCCN2C(=O)c3ccccc3S2(=O)=O)CC1", "Ki": 584}
{"smiles": "O=C1c2ccccc2S(=O)(=O)N1CCCCN1CCN(c2cccc(Cl)c2Cl)CC1", "Ki": 2580}
{"smiles": "O=C1c2ccccc2S(=O)(=O)N1CCCCN1CCN(c2cccc(C(F)(F)F)c2)CC1", "Ki": 2250}
{"target": "T4, 5-hydroxytryptamine receptor 2C (Homo sapiens, UniProt P28335)", "T4 sequence (P28335 whole entry)": "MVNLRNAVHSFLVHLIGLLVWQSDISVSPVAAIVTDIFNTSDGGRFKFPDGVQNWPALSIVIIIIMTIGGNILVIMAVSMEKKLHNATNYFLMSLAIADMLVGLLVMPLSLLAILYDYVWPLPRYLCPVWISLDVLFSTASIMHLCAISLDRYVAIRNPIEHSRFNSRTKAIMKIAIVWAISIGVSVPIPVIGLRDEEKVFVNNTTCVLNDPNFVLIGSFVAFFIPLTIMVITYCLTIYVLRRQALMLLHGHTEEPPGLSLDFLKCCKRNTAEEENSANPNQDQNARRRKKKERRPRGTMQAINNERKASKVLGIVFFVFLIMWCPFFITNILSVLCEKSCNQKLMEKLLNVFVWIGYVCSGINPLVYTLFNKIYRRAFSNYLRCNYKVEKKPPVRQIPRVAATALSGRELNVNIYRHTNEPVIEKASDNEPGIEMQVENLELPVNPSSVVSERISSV", "assay": "Binding affinity to human 5-HT2C", "units": {"Ki": "nM"}}
{"smiles": "O=C1c2ccccc2S(=O)(=O)N1CCCN1CCN(c2cccc(C(F)(F)F)c2)CC1", "Ki": "> 5000"}
{"smiles": "O=C1c2ccccc2S(=O)(=O)N1CCCCN1CCN(c2cccc(C(F)(F)F)c2)CC1", "Ki": "> 5000"}
{"target": "D(1A) dopamine receptor (Homo sapiens, UniProt P21728)", "sequence (P21728 whole entry)": "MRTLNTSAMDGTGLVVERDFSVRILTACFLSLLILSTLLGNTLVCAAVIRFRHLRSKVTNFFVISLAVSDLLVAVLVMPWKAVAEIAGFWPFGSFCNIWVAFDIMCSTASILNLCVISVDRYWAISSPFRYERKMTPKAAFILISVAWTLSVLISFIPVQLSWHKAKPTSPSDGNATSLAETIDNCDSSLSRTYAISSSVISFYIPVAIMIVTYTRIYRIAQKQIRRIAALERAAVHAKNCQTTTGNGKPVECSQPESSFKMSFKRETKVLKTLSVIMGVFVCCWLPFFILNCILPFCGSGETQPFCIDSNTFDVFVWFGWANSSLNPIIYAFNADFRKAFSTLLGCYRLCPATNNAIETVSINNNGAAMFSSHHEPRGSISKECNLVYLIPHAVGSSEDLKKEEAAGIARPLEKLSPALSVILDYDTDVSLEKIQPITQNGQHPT", "assay": "Binding affinity to human D1R", "units": {"Ki": "nM"}}
{"smiles": "O=C1c2ccccc2S(=O)(=O)N1CCCCN1CCN(c2cccc(C(F)(F)F)c2)CC1", "Ki": "> 5000"}
{"target": "T5, 5-hydroxytryptamine receptor 1A (Rattus norvegicus, UniProt P19327)", "T5 sequence (P19327 whole entry)": "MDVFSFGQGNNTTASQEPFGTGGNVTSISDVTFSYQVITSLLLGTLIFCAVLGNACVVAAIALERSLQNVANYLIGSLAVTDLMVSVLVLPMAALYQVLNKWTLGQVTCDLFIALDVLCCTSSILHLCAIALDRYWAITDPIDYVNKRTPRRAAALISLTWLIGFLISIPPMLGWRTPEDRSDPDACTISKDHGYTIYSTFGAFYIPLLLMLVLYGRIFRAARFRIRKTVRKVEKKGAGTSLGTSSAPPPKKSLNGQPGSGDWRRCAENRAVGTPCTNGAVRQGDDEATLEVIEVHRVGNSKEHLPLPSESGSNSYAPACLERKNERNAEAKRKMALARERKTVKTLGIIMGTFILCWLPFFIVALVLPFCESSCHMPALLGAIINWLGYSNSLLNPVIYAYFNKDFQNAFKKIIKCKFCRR", "assay": "Displacement of [3H]-[…] from Wistar rat frontal region 5-HT1AR incubated for 30 mins", "format": "tissue-based, Frontal lobe", "units": {"Ki": "nM"}}
{"smiles": "O=C1c2ccccc2S(=O)(=O)N1CCCCN1CCN(c2cccc(C(F)(F)F)c2)CC1", "Ki": 100}
{"target": "D(2) dopamine receptor (Rattus norvegicus, UniProt P61169)", "sequence (P61169 whole entry)": "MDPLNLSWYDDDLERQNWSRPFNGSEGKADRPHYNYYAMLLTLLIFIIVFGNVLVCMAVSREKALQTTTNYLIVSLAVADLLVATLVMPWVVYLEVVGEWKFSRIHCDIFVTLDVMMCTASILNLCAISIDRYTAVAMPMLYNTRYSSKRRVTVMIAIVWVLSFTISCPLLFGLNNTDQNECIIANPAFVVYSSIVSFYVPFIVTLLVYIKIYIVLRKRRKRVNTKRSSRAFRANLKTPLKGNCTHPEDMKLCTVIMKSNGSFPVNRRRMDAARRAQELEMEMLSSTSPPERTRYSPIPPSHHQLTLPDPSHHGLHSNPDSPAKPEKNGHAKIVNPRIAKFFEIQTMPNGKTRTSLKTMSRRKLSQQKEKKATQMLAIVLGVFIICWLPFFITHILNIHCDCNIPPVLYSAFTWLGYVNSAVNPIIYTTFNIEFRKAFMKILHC", "assay": "Displacement of [3H]-spiperone from DRD2 in rat striatum incubated for 45 mins by liquid scintillation counting", "format": "tissue-based", "units": {"Ki": "nM"}}
{"smiles": "O=C1c2ccccc2S(=O)(=O)N1CCCCN1CCN(c2cccc(C(F)(F)F)c2)CC1", "Ki": 2250}
